In patent US5043268A, “Substrates and inhibitors for prenyl cysteine methyltransferase enzymes” (The Trustees of Princeton University, priority 1990, dated 1991):

Molecular target: prenyl cysteine methyltransferase (Bos taurus, UniProt A0AAA9SD88)
Test: Prenyl cysteine methyltransferase assay (3H-methyl transfer from S-adenosylmethionine to AFC, vapor-phase equilibrium)
Assay type: biochemical
Conditions: 5.0 μM (3H-methyl)-S-adenosylmethionine, 83,000×g pellet of bovine brain, 37° C., pH 7.9
Method: To a putative source of prenyl cysteine methyl transferase enzyme is added 50 μM of N-acetyl-S-farnesyl cysteine ("AFC") and 5.0 μM (^3 H-methyl)-S-adenosylmethionine (specific activity 16,000 cpm/pmol) in 100 mM tris-HCl, 1 mM EDTA, 1 mM DTT, pH 7.9 in a final volume of 150 μL. After heating the mixture at 37° C. for 5 to 25 minutes, 25 μL of the mixture is removed and added to 250 μL of heptane. The mixture is immediately vortexed to extract N-acetyl-S-farnesyl cysteine methyl ester into the organic phase. The mixture then is centrifuged for 30 seconds, and placed in a dry ice/acetone bath to quench the reaction. The heptane layer (200 μL) is removed and added to a 1.5 mL capless Eppendorf microcentrifuge tube. The heptane is evaporated in a Speedvac, and 25 μL of 1M sodium hydroxide is added to the remaining residue. The ^3 H-methanol produced from the hydrolysis of the ^3 H-methylesters is assayed by the vapor-phase equilibrium procedure as described in Stock, J. B., et al. (1984) Methods Enzymology, 106, 310-321 which is incorporated herein by reference.
A sample of 0.003 grams of 83,000×g. pellet from homogenized bovine brain after previous removal of the 14,000×g. pellet was subjected to the foregoing assay.

Chain of prenyl cysteine methyltransferase (A0AAA9SD88 1-284): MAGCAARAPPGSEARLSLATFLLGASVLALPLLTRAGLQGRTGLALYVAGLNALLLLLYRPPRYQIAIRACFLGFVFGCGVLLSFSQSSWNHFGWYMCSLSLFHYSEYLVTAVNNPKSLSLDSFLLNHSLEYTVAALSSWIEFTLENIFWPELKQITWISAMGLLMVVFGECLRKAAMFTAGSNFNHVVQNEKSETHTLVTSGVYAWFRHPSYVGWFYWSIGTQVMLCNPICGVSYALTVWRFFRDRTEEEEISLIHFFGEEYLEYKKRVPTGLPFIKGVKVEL

CC(=O)N[C@@H](CSC/C=C(\C)CC/C=C(\C)CCC=C(C)C)C(=O)O [AFC, N-Acetyl, S-trans,trans-farnesyl-L-cysteine]
cpm (w/50 μM AFC) (5 min): 199.5 cpm
cpm (w/50 μM AFC) (10 min): 343.5 cpm
cpm (w/50 μM AFC) (15 min): 393.5 cpm
cpm (w/50 μM AFC) (20 min): 543.0 cpm
cpm (w/50 μM AFC) (25 min): 616.0 cpm
